From patent US20050075375A1 (priority 2003, published 2005)
Like-named read-outs stand apart in the source and are kept apart here.

System: monocistronic NK5.1 HCV replicon in Huh7 cells
Test: HCV replicon assay, monocistronic replicon cell line
Assay type: cell-based, hepatitis C virus
Settings: Hepatitis C virus, read-out: Mono EC50 Median
How it was run: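 EC50 derives from the HCV RNA/GAPDH RNA ratio by one-step TaqMan RT-PCR, relative to DMSO-only wells. Compounds (six half-log concentrations, 0.6% DMSO) were incubated 3 days at 37 °C with NK5.1 monocistronic replicon Huh7 cells plated a day earlier.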

[1] = Huh-7, 72 h, table T3 (compounds 471-640), monocistronic replicon in Huh7 cells, 3 days incubation, HCV RNA/GAPDH RNA by TaqMan RT-PCR
[2] = Huh-7, 72 h, Table 1, monocistronic replicon in Huh7 cells, 3 days incubation, HCV RNA/GAPDH RNA by TaqMan RT-PCR
[3] = Huh-7, monocistronic NK5.1 HCV replicon in Huh7 cells, median value

Structure (SMILES) | EC50 [2] | EC50 [3] | other results
Cc1cccnc1-c1nc(-c2ccc3ccccc3c2O)n(C)n1 [Compound 618, 2-[2-methyl-5-(3-methyl-pyridin-2-yl)-2H-[1,2,4]triazol-3-yl]-naphthalen-1-ol] |  |  | EC50 [1]: 1.5 µM
Cc1cccnc1-c1n[nH]c(-c2ccccc2Br)n1 [Compound 504, 2-[5-(2-Bromo-phenyl)-1H-[1,2,4]triazol-3-yl]-3-mehtyl-pyridine] |  |  | EC50 [1]: 7.3 µM
Cc1cccnc1-c1noc(-c2c(O)ccc3ccccc23)n1 [Compound 189, 1-[3-(3-Methyl-pyridin-2-yl)-[1,2,4]oxadiazol-5-yl]-naphthalen-2-ol] | 1.2 µM |  | 
Cc1cccnc1-c1n[nH]c(-c2ccccc2O)n1 [Compound 452, 2-(5-(3-methyl-pyridin-2-yl)-2H-[1,2,4]triazol-3-yl)-phenol] |  | 31 µM | 
COc1cccc(-c2nc(-c3nccc4ccccc34)n[nH]2)c1O [Compound 378, 6-Methoxy-2-(5-isoquinolin-1-yl-2H-[1,2,4]triazol-3-yl)-phenol] |  | 16 µM | 
CC(=O)Nc1ccc(-c2nc(-c3ncccc3C)no2)c(O)c1 [Compound 291] |  | 6 µM | 
Oc1ccccc1-c1nnc(-c2ncccc2C(F)(F)F)o1 [Compound 342, 2-[5-(3-Trifluoromethyl-pyridin-2-yl)-[1,3,4]oxadiazol-2-yl]-phenol] |  | > 32 µM | 
COc1ccc(O)c(-c2ccnn2-c2ccccn2)c1 [Compound 85, 4-Methoxy-2-(2-pyridin-2-yl-2H-pyrazol-3-yl)-phenol] | > 32 µM |  | 
Oc1ccc(Br)cc1-c1ccn(-c2ncccc2C(F)(F)F)n1 [Compound 100, 4-Bromo-2-[1-(3-trifluoromethyl-pyridin-2-yl)-1H-pyrazol-3-yl]-phenol] | 2.3 µM |  | 
O=[N+]([O-])c1cccc(-c2nc(-c3ccc(C(F)(F)F)cn3)n[nH]2)c1 [Compound 520, 2-[5-(3-Nitro-phenyl)-1H-[1,2,4]triazol-3-yl]-5-trifluoromethyl-pyridine] |  |  | EC50 [1]: > 19 µM
COc1ccc(O)c(-c2nc(-c3ncccc3C(F)(F)F)n[nH]2)c1 [Compound 534, 4-Methoxy-2-[5-(3-trifluoromethyl-pyridin-2-yl)-2H-[1,2,4]triazol-3-yl]-phenol] |  |  | EC50 [1]: 2.3 µM
Cc1ccccc1-c1nnc(-c2ccccc2[N+](=O)[O-])o1 [Compound 315, 2-(2-Nitro-phenyl)-5-o-tolyl-[1,3,4]oxadiazole] |  | > 32 µM | 
CCN(CC)c1ccc(-c2nc(-c3ccc(C(F)(F)F)cn3)n[nH]2)c(O)c1 [Compound 521, 5-Diethylamino-2-[5-(5-trifluoromethyl-pyridin-2-yl)-2H-[1,2,4]triazol-3-yl]-phenol] |  |  | EC50 [1]: > 19 µM
COc1ccc(O)c(-c2cc(-c3ccccn3)on2)c1 [Compound 125, 4-Methoxy-2-(5-pyridin-2-yl-isoxazol-3-yl)-phenol] | 11 µM |  | 
Cc1cccnc1-c1noc(-c2ccccc2O)n1 [Compound 188, 2-[3-(3-Methyl-pyridin-2-yl)-[1,2,4]oxadiazol-5-yl]-phenol] | > 32 µM |  | 
Oc1ccccc1-c1nnc(-c2cccs2)o1 [Compound 324, 2-(5-Thiophen-2-yl-[1,3,4]oxadiazol-2-yl)-phenol] |  | > 32 µM | 
Oc1ccccc1-c1nc(-c2nccc3ccccc23)n[nH]1 [Compound 377, 2-(5-isoquinolin-1-yl-2H-[1,2,4]triazol-3-yl)-phenol] |  | > 19 µM | 
FC(F)(F)c1ccncc1-c1n[nH]c(-c2ccccc2Br)n1 [Compound 473, 3-[5-(2-Bromo-phenyl)-1H-[1,2,4]triazol-3-yl]-4-trifluoromethyl-pyridine] |  |  | EC50 [1]: > 32 µM
Clc1cccc(Cl)c1-c1nc(-c2ccccn2)n[nH]1 [Compound 435, 2-[5-(2,6-Dichloro-phenyl)-1H-[1,2,4]triazol-3-yl]-pyridine] |  | > 19 µM | 
CCOc1cccc(-c2nc(-c3cnccc3C(F)(F)F)n[nH]2)c1O [Compound 416, 6-Ethoxy-2-[5-(4-trifluoromethyl-pyridin-3-yl)-2H-[1,2,4]triazol-3-yl]-phenol] |  | > 19 µM | 
O=[N+]([O-])c1cccnc1-c1noc(-c2cc(F)ccc2O)n1 [Compound 162, 4-Fluoro-2-[3-(3-nitro-pyridin-2-yl)-[1,2,4]oxadiazol-5-yl]-phenol] | 17 µM |  | 
COc1cccc(-c2nc(-c3ncccc3C(F)(F)F)no2)c1 [Compound 138, 2-[5-(3-Methoxy-phenyl)-[1,2,4]oxadiazol-3-yl]-3-trifluoromethyl-pyridine] | > 19 µM |  | 
Fc1cc(-c2nc(-c3ncccc3Br)n[nH]2)ccc1-c1ccccc1 [Compound 491, 3-Bromo-2-[5-(2-Fluoro-biphenyl-4-yl)-1H-[1,2,4]triazol-3-yl]-pyridine] |  |  | EC50 [1]: 2.3 µM
Cc1cccnc1-c1noc(-c2cc(O)ccc2OCc2ccccc2)n1 [Compound 267, 4-Benzyloxy-3-[3-(3-methyl-pyridin-2-yl)-[1,2,4]oxadiazol-5-yl]-phenol] |  | 15.9 µM | 

Structure (SMILES) | EC50 [2] | EC50 [3] | other results
Oc1ccc2ccccc2c1-c1nc(-c2cnccn2)n[nH]1 [Compound 589, 1-(5-pyrazin-2-yl-2H-[1,2,4]triazol-3-yl)-naphthalen-2-ol] |  |  | EC50 [1]: 7 µM
COc1ccc(O)c(-c2ccn(-c3ncccc3[N+](=O)[O-])n2)c1 [Compound 117, 4-Methoxy-2-[1-(3-nitro-pyridin-2-yl)-1H-pyrazol-3-yl]-phenol] | 25.4 µM |  | 
COc1ccc(OC)c(-c2nc(-c3ncccc3C)no2)c1 [Compound 178, 2-[5-(2,5-Dimethoxy-phenyl)-[1,2,4]oxadiazol-3-yl]-3-methyl-pyridine] | > 32 µM |  | 
Cc1cc(-c2c(O)ccc3ccccc23)nn1-c1ccc(C(C)C)cc1 [Compound 13, 1-[1-(4-Isopropyl-phenyl)-5-methyl-1H-pyrazol-3-yl]-naphthalen-2-ol] | > 19 µM |  | 
O=[N+]([O-])c1cccnc1-c1noc(-c2c(O)ccc3ccccc23)n1 [Compound 137, 1-[3-(3-Nitro-pyridin-2-yl)-[1,2,4]oxadiazol-5-yl]-naphthalen-2-ol] | 1.8 µM |  | 
COc1cccc(-c2nc(-c3nccc4ccccc34)no2)c1O [Compound 209, 2-(3-Isoquinolin-1-yl-[1,2,4]oxadiazol-5-yl)-6-methoxy-phenol] | 7.4 µM |  | 
Oc1cc(OCc2ccccc2)ccc1-c1nc(-c2ncccn2)n[nH]1 [Compound 565, 5-Benzyloxy-2-(5-pyrimidin-2-yl-2H-[1,2,4]triazol-3-yl)-phenol] |  |  | EC50 [1]: 26 µM
COc1ccc(OCc2ccccc2)c(-c2ccnn2Cc2ccccn2)c1 [Compound 116, 2-[5-(2-Benzyloxy-5-methoxy-phenyl)-pyrazol-1-ylmethyl]-pyridine] | 13 µM |  | 
Oc1ccccc1-c1nc(-c2ccccn2)no1 [Compound 133, 2-(3-Pyridin-2-yl-[1,2,4]oxadiazol-5-yl)-phenol] | > 19 µM |  | 
Oc1ccc2ccccc2c1-c1nnc(-c2ccccc2)o1 [Compound 304, 1-(5-Phenyl-[1,3,4]oxadiazol-2-yl)-naphthalen-2-ol] |  | > 32 µM | 
Oc1ccc2ccccc2c1-c1nnc(-c2ncc(C(F)(F)F)cc2Cl)o1 [Compound 309, 1-[5-(3-Chloro-5-trifluoromethyl-pyridin-2-yl)-[1,3,4]oxadiazol-2-yl]-naphthalen-2-ol] |  | 16 µM | 
COc1cccc(-c2nc(-c3ccc(N)cn3)no2)c1O [Compound 251, 2-[3-(5-Amino-pyridin-2-yl)-[1,2,4]oxadiazol-5-yl]-6-methoxy-phenol] |  | > 32 µM | 
COc1ccc(-c2nc(-c3ccc(NC(C)=O)cn3)no2)c(O)c1 [Compound 261, N-{6-[5-(2-Hydroxy-4-methoxy-phenyl)-[1,2,4]oxadiazol-3-yl]-pyridin-3-yl}-acetamide] |  | 45.3 µM | 
CCCNC(=O)c1cc(-c2ccc3ccccc3c2)nn1-c1ncccc1C(F)(F)F [Compound 76, 5-Naphthalen-2-yl-2-(3-trifluoromethyl-pyridin-2-yl)-2H-pyrazole-3-carboxylic acid propylamide] | 9.4 µM |  | 
COc1cc(OCc2ccccc2)c(-c2ccn(-c3ccccn3)n2)cc1OC [Compound 121, 2-[3-(2-Benzyloxy-4,5-dimethoxy-phenyl)-pyrazol-1-yl]-pyridine] | 13.5 µM |  | 
COc1ccc(O)c(-c2nc(-c3ncccc3C)n[nH]2)c1 [Compound 444, 4-Methoxy-2-(5-(3-methyl-pyridin-2-yl)-2H-[1,2,4]triazol-3-yl)-phenol] |  | 7.7 µM | 
COc1ccc(-c2ccn(-c3ncccc3[N+](=O)[O-])n2)c(F)c1 [Compound 45, 2-[3-(2-Fluoro-4-methoxy-phenyl)-pyrazol-1-yl]-3-nitro-pyridine] | 5.8 µM |  | 
FC(F)(F)c1ccncc1-c1n[nH]c(-c2cccc3ccccc23)n1 [Compound 410, 3-(5-Naphthalen-1-yl-1H-[1,2,4]triazol-3-yl)-4-trifluoromethyl-pyridine] |  | 2.9 µM | 
CCN(CC)c1ccc(-c2n[nH]c(-c3ncccc3C)n2)c(O)c1 [Compound 455, 5-Diethylamino-2-[5-(3-methyl-pyridin-2-yl)-2H-[1,2,4]triazol-3-yl]-phenol] |  | 8.1 µM | 
Oc1ccc(F)cc1-c1nc(-c2cnccn2)n[nH]1 [Compound 577, 4-Fluoro-2-(5-pyrazin-2-yl-2H-[1,2,4]triazol-3-yl)-phenol] |  |  | EC50 [1]: 18 µM
COc1ccc(-c2ccnn2-c2ccccn2)c(F)c1 [Compound 54, 2-[5-(2-Fluoro-4-methoxy-phenyl)-pyrazol-1-yl]-pyridine] | 2.2 µM |  | 
O=[N+]([O-])c1ccc(O)c(-c2nc(-c3ncccc3Br)n[nH]2)c1 [Compound 485, 2-[5-(3-Bromo-pyridin-2-yl)-2H-[1,2,4]triazol-3-yl]-4-Nitro-phenol] |  |  | EC50 [1]: > 19 µM
Oc1ccc2ccccc2c1-c1nc(-c2nccc3ccccc23)no1 [Compound 210, 1-(3-Isoquinolin-1-yl-[1,2,4]oxadiazol-5-yl)-naphthalen-2-ol] | 2.4 µM |  | 
